From patent publication US20030022921A1, “Stable pharmaceutical formulation comprising torsemide modification II” (priority 2001, published 2003)

Experiment: Polymorphic content by XRPD in bulk torsemide modification II on storage
Type: physicochemical
Design: key to Polymorphic form detected (I or II): “I” is Torsemide Modification I; “II” is Torsemide Modification II
Conditions: for Polymorph Content / Polymorph Content: amount of Torsemide Modification I / Polymorphic form detected (I or II): bulk
Excerpt: 1. The present procedure is used for the detection and quantitative determination of the presence of torsemide modification I in tablets wherein the active ingredient is high purity torsemide modification II. The present procedure is also used for the detection and quantitative determination of torsemide modification I in bulk high purity torsemide modification II, which is to be used as the active ingredient in tablets. The present method is based on the unique x-ray powder diffraction pattern of torsemide modification I that is characterized by a strong peak at two-theta 5.7±0.2°, the presence of which indicates the presence of torsemide modification I in a sample of high purity torsemide modification II. 2.1 Instrument: Philips x-ray powder diffractometer. Goniometer model PW 1050/70, Cu-tube, curved graphite monochromator. 2.2 Sample holder: A standard aluminum sample holder with a rectangular cavity 20*15*0.3 mm inside it. Scanning range: 2θ=4° to at least 22° Step: 0.05° Step duration: 0.5 4.1 Gently grind a small amount of sample powder in an agate mortar with the pestle. 4.2 Fill the rectangular cavity on the sample holder with the powder.

[1] = first storage column (condition not given), 1 week
[2] = storage condition not given, 1 month
[3] = storage condition not given, 2 months
[4] = storage condition not given, 2 weeks

Cc1cccc(Nc2ccncc2S(=O)(=O)NC(=O)NC(C)C)c1 [Bulk No. 851700200, 1-Isopropyl-3-[(4-m-toluidino-3-pyridyl)-sulfonyl]urea]
Polymorph Content (first storage column (condition not given), 1 month): I + II | Polymorph Content [1]: II >> I | Polymorph Content: amount of Torsemide Modification I [1]: ~0.4% | Polymorph Content (first storage column (condition not given), 2 months): I + II | Polymorph Content (first storage column (condition not given), 2 weeks): I + II | Polymorph Content (first storage column (condition not given), 3 months): I > II | Polymorph Content (first storage column (condition not given), 4 months): I + II | Polymorph Content [2]: II >> I | Polymorph Content: amount of Torsemide Modification I [2]: ~1% | Polymorph Content [3]: II >> I | Polymorph Content: amount of Torsemide Modification I [3]: ~6% | Polymorph Content [4]: II >> I | Polymorph Content: amount of Torsemide Modification I [4]: ~0.5% | Polymorph Content (storage condition not given, 3 months): I + II | Polymorph Content (storage condition not given, 4 months): I + II | Polymorph Content (t = 0): II >>> I | Polymorph Content: amount of Torsemide Modification I (t = 0): < 0.3% | Polymorphic stability during storage under stress conditions (listed as torsemide modification II that contains trace amounts of torsemide modification): not stable during storage under stress condition for at least 3 months

Cc1cccc(Nc2ccncc2S(=O)(=O)NC(=O)NC(C)C)c1 [Bulk Lot No. 851700100, 1-Isopropyl-3-[(4-m-toluidino-3-pyridyl)-sulfonyl]urea]
Polymorphic form detected (I or II) (storage 40° C., 75% RH, 1 month): II | Polymorphic form detected (I or II) (storage 40° C., 75% RH, 2 months): II | Polymorphic form detected (I or II) (storage 40° C., 75% RH, 2 weeks): II | Polymorphic form detected (I or II) (storage 40° C., 75% RH, 3 months): II | Polymorphic form detected (I or II) (storage 40° C., 75% RH, 4 months): II | Polymorphic form detected (I or II) (storage 55° C., 1 month): II | Polymorphic form detected (I or II) (storage 55° C., 1 week): II | Polymorphic form detected (I or II) (storage 55° C., 2 months): II | Polymorphic form detected (I or II) (storage 55° C., 2 weeks): II | Polymorphic form detected (I or II) (storage 55° C., 3 months): II | Polymorphic form detected (I or II) (storage 55° C., 4 months): II | Rearrangement into different polymorphic forms of torsemide (storage at 40° C. at 75% relative humidity for 3 months, tablet formulations or bulk active ingredient): does not undergo any significant rearrangement | Polymorphic stability during storage under stress conditions (listed as high purity torsemide modification II): stable during storage under stress conditions for at least 3 months
